Values quoted from earlier work, collected in PMC6331757, “Optimization of a peptide extraction and LC–MS protocol for quantitative analysis of antimicrobial peptides” (Future Science OA, 2018).

System: Gram-negative (e.g., Pseudomonas aeruginosa and Escherichia coli) and Gram-positive (e.g., Staphylococcus aureus) bacteria
Conditions: qualitative statement

## VRLIVAVRIWRR [AMP 1018, synthetic antimicrobial peptide 1018 (…); also used as internal standard]
  antibacterial activity (kills bacteria, disperses biofilms, inhibits bacterial swarming): potent antibacterial
